Where two headings read alike, the source gives them in different places.
Assays:
[1] = Microsomal stability assay; format: in vitro ADME
Method: Microsomal stability was determined by Absorption Systems (Exton, PA). INX-315 was tested in mixed-gender human liver microsomes (Lot #1010420), male Sprague-Dawley rat liver microsomes (Lot #1910100), male CD-1 mouse liver microsomes (Lot #2010017), and male beagle dog liver microsomes (Lot #2010046) were purchased from XenoTech/BioIVT by Absorption Systems. The reaction mixture, minus NADPH, was prepared as described below. The test article was added into the reaction mixture at a final concentration of 1 µmol/L. The control compound, testosterone, was run simultaneously with the test article in a separate reaction. The reaction mixture (without cofactor) was equilibrated in a shaking water bath at 37°C for 5 minutes. The reaction was initiated by the addition of the cofactor, and the mixture was incubated in a shaking water bath at 37°C. Aliquots (100 µL) were withdrawn at 0, 10, 20, 30, and 60 minutes. Test article and testosterone samples were immediately combined with 400 µL of ice-cold 50/50 acetonitrile (ACN)/H2O containing 0.1% formic acid and internal standard to terminate the reaction. The samples were then mixed and centrifuged to precipitate proteins. All samples were assayed by LC-MS/MS using electrospray ionization. The peak area response ratio (PARR) of analyte to internal standard at each time point was compared to the PARR at time 0 to determine the percent remaining at each time point. Half-lives and clearance were calculated using GraphPad software (RRID:SCR_002798), fitting to a single-phase exponential decay equation.

CDK4/cyclin D1 = biological target: T1, CDK4/cyclin D1 (Homo sapiens, UniProt P11802); experiment: Nanosyn biochemical assay; settings: ATP at Km, value (SEM), read-out: IC50 (nmol/L) CDK4/cyclin D1
T1 construct: purchased ThermoFisher PV4400
Method: (§1) Compounds were tested in kinase assays (Nanosyn, Inc.). The assays were completed using microfluidic kinase detection technology (Caliper Assay Platform). The compounds were tested in 12-point dose–response format in singlicate at the Km for ATP. Phosphoacceptor substrate peptide concentration used was 1 µmol/L and staurosporine was used as the reference compound for all assays. Details for individual Nanosyn assays performed are provided here: […]

CDK6/cyclin D3 = biological target: T2, CDK6/cyclin D3 (Homo sapiens, UniProt Q00534); experiment: Nanosyn biochemical assay; settings: value (SEM)
T2 construct: purchased Carna 04-107
Method: as §1

CDK3/cyclin E1 = biological target: T3, CDK3/cyclin E1 (Homo sapiens, UniProt Q00526); experiment: Nanosyn biochemical assay; settings: ATP at Km, value (SEM), read-out: IC50 (nmol/L) CDK3/cyclin E1
T3 construct: purchased BPS 40103
Method: as §1

CDK2/cyclin A2 = biological target: T4, CDK2/cyclin A2 (Homo sapiens, UniProt P24941); experiment: Nanosyn biochemical assay; settings: ATP at Km, value (SEM), read-out: IC50 (nmol/L) CDK2/cyclin A2
T4 construct: purchased Millipore 14-448
Method: as §1

CDK5/p25 = biological target: T5, CDK5/p25 (Homo sapiens, UniProt Q00535); experiment: Nanosyn biochemical assay; settings: ATP at Km, value (SEM), read-out: IC50 (nmol/L) CDK5/p25
T5 construct: purchased BPS 40105
Method: as §1

CDK1/cyclin B1 [2] = biological target: T6, CDK1/cyclin B1 (Homo sapiens, UniProt P06493); experiment: Nanosyn biochemical assay; settings: value (SEM)
T6 construct: purchased Millipore 14-450M
Method: as §1

CDK9/cyclin T1 [3] = biological target: T7, CDK9/cyclin T1 (Homo sapiens, UniProt P50750); experiment: Nanosyn biochemical assay; settings: value (SEM)
T7 construct: purchased Carna 04-110
Method: as §1

CDK7 = biological target: T8, CDK7 (Homo sapiens, UniProt P50613); experiment: Nanosyn biochemical assay; settings: ATP at Km, value (SEM), read-out: IC50 (nmol/L) CDK7
T8 construct: purchased Carna 04-108
Method: as §1

CDK2/cyclin E1 = biological target: T9, CDK2/cyclin E1 (Homo sapiens, UniProt P24941); experiment: Nanosyn biochemical assay; settings: Nanosyn, ATP at Km; value (SEM); read-out: IC50 (nmol/L) CDK2/cyclin E1
T9 construct: purchased Millipore 14-475
Method: as §1

CDK5 = biological target: T10, CDK5 (Homo sapiens, UniProt Q00535); experiment: Nanosyn biochemical assay; settings: ATP at Km, value (SEM), read-out: IC50 (nmol/L) CDK5
T10 construct: purchased ThermoFisher PV3000
Method: as §1

[4] = test system: palbociclib-resistant MCF7 cells; experiment: CellTiter Glo viability assay; format: cell-based; settings: Homo sapiens, MCF7, Supp Fig S9B, CDK4/6 inhibitor monotherapy; read-out: IC50
Method: (§2) An exception to this is MCF7PDRCl5-1 cells which were first cultured for 5 days without palbociclib then plated as described. MCF7PDRCl5-1 cells were treated with either a dose curve of the indicated CDK4/6i or a dose curve of INX-315 + 1 µmol/L of the indicated CDK4/6i. Cell viability was determined using the CellTiter-Glo assay (Promega, G9241) following manufacturer's instructions. Plates were processed on either BioTek Synergy2 multi-mode (Agilent) or ClarioSTAR (BMG Labtech) plate readers. T47D and MCF7 cells were seeded into […] plates using BioTek 406 (Aglient) and treated with a ten-point dose concentration from 10 µmol/L to 0.3 nmol/L of INX-315 for 2× doubling times. Plates were fixed with 4% PFA and stained with Rhodamine-Phalloidin (Bio-Trend, 00027) and DAPI (5 mg/mL, Invitrogen, catalog no. D1306). Plates were imaged using CellInsight CX7 LZR and DAPI-positive cells were counted using Thermo Fisher Scientific HCS Studio Cell Analysis Software.

CDK1/cyclin B1 [5] = biological target: T6, CDK1/cyclin B1; experiment: NanoBRET live cell target engagement; format: binding; settings: Supp Fig S1E, NanoBRET; read-out: Intracellular IC50 (nM) CDK1/B1
Method: (§3) Reaction Bio (Malvern, PA) conducted NanoBRET assays utilizing Promega NanoLuc technology with two replicates per experiment. The CDK2/E1 and CDK1/B1 values are the average of two separate experiments.
(§4) HEK293 cells were transfected using Opti-MEM without serum containing ratios of 9.0 µg/mL of Transfection Carrier DNA, 1.0 µg/mL of NanoLuc fusion vector DNA and 1 mL of Opti-MEM without phenol red. 30 µL of FuGENE HD transfection reagent was added to each milliliter of DNA mixture to form lipid:DNA complex. After incubation for 20 minutes at room temperature, 1 part lipid/DNA complex was added to 20 parts HEK293 cells in suspension. Cells were then plated and incubated overnight before being trypsinized and resuspended at 2 × 10^5 cells/mL. NanoBRET tracer reagent was added to cells at a ratio of 1 part tracer to 20 parts cell suspension. Cells were added to a 384-well plate and incubated for 1 hour. Plates were removed and incubated at room temperature for 15 minutes to equilibrate before 3x complete substrate plus inhibitor was added. After 2–3 minutes of incubation at room temperature, donor and acceptor wavelengths (460 nm and 600 nm, respectively) were measured using an Envision 2104 plate reader.

CDK9/cyclin T1 [6] = biological target: T7, CDK9/cyclin T1; experiment: NanoBRET live cell target engagement; format: binding; settings: Supp Fig S1E, NanoBRET; read-out: Intracellular IC50 (nM) CDK9/T1
Method: as §3, §4

[7] = test system: all CCNE1-amplified lines; experiment: CellTiter Glo viability assay; format: cell-based; settings: all CCNE1-amplified lines, INX-315 vs PF-07104091, 6 days
Method: as §2

MCF7 Fulv-resistant = experiment: Cell number dose-response; format: cell-based; settings: Supp Fig S7D, Fulv-Resistant in 100 nM fulvestrant, 7 days; read-out: IC50 (nM) MCF7
Text: (§5) MCF7 abemaciclib-resistant cells were generated by continuous treatment with abemaciclib at a concentration of 250 nmol/L for 72 days, followed by 500 nmol/L for 48 days. MCF7 fulvestrant-resistant cells were generated by continuous treatment of 100 nmol/L Fulvestrant for 125 days. MCF7 abemaciclib/fulvestrant-resistant cells were generated by treating abemaciclib-resistant cells continuously with 100 nmol/L fulvestrant for 137 days. T47D abemaciclib-resistant lines were generated by continuous treatment with abemaciclib at a concentration of 500 nmol/L for 73 days. T47D fulvestrant–resistant cells were generated by continuous treatment with 100 nmol/L fulvestrant for 68 days. T47D abemaciclib/fulvestrant-resistant cells were generated by treating abemaciclib-resistant cells with continuous treatment of 100 nmol/L Fulvestrant for 60 days. Resistant cell lines were cultured in medium containing drug(s) that the line is resistant to and further authenticated using short tandem repeat profiling.
as §2

MCF7 Abema-resistant = experiment: Cell number dose-response; format: cell-based; settings: Supp Fig S7D, Abema-Resistant in 500 nM abemaciclib, 7 days; read-out: IC50 (nM) MCF7
Text: as §5, §2

MCF7 Parent = experiment: Cell number dose-response; format: cell-based; settings: Supp Fig S7D, 7 days, read-out: IC50 (nM) MCF7
Text: as §5, §2

ST4316B PDX = experiment: PDX tumor growth; format: in vivo, mice; settings: monotherapy; ribociclib 50 mg/kg per day
Method: PDX models were performed by Crown Biosciences (OV5398, GA0103, and GA0114) or XenoSTART (ST4316B). Tumor fragments from stock mice were harvested and implanted subcutaneously into the flank of NOD/SCID mice (OV5398, RRID:IMSR_JAX:001303), BALB/c nude mice (GA0103 and GA0114, RRID:IMSR_RJ:BALB-C-NUDE), or athymic nude mice (Crl:NU(NCr)-Foxn1nu, RRID:IMSR_CRL:490) (ST4316B). For CDX models, female athymic nude mice (Crl:NU(NCr)-Foxn1nu, RRID:IMSR_CRL:490) were inoculated with 1 × 10^7 50% Cultrex OVCAR3 cells in the flank. Experiments performed using MMTV-rtTA/tetO-HER2 mice were performed at the Peter MacCallum Cancer Centre. Tumor formation was induced and sustained in female mice with doxycycline as previously described ([33]). Randomization and treatment in all models began when median tumor volume reached a maximum of 300 mm^3.
Mice were treated via oral gavage. INX-315 was prepared weekly in 100% PEG400; abemaciclib was prepared as previously described ([33]) and ribociclib (Selleckchem, S7440) was prepared weekly in 0.5% methyl cellulose. To generate abemaciclib-resistant MMTV-rtTA/tetO-HER2 tumors, mice were treated continuously with abemaciclib at a dose of 75 mg/kg until tumors resumed growth as described in text. At this point and in all other MMTV-rtTA/tetO-HER2 mice experiments, mice were randomized into treatment groups and abemaciclib was administered to indicated groups at a dose of 50 mg/kg. In all MMTV-rtTA/tetO-HER2 mice experiments, INX-315 was administered at a dose of 50 mg/kg twice daily. For PDX model ST4316B, ribociclib was administered at 50 mg/kg per day.

[8] = both sexes, human, liver microsomes, 1 µmol/L, 60 min incubation, read-out: Half-life
[9] = male, CD-1, liver microsomes, Mouse microsomes, 60 min incubation
[10] = male, Sprague-Dawley, rat, liver microsomes, 1 µmol/L, 60 min incubation, read-out: Half-life
[11] = male, beagle, dog, liver microsomes, 1 µmol/L, 60 min incubation, read-out: Half-life
[12] = ATP at Km, read-out: IC50 (nmol/L) CDK6/cyclin D3
[13] = ATP at Km, read-out: IC50 (nmol/L) CDK1/cyclin B1

T8 sequence (P50613 whole entry): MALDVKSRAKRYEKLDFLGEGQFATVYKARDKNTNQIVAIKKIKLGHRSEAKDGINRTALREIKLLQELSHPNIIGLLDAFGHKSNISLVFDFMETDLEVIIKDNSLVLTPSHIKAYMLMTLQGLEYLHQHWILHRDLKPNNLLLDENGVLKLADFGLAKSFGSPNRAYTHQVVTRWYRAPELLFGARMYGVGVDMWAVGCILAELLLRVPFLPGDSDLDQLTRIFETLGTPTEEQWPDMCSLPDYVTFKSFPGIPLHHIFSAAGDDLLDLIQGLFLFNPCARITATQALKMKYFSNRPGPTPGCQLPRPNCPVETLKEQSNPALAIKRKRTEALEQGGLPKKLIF
T8 sequence (P51946 whole entry partner): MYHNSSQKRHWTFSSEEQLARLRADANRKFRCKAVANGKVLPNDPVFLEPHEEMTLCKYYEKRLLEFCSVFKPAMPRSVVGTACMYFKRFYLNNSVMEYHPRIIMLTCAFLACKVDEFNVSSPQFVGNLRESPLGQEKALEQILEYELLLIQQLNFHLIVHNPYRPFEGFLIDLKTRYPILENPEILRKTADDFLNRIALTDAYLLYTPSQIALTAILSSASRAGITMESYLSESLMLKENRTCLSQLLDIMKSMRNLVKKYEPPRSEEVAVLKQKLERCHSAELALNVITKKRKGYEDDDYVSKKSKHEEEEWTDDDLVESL
T8 sequence (P51948 whole entry partner): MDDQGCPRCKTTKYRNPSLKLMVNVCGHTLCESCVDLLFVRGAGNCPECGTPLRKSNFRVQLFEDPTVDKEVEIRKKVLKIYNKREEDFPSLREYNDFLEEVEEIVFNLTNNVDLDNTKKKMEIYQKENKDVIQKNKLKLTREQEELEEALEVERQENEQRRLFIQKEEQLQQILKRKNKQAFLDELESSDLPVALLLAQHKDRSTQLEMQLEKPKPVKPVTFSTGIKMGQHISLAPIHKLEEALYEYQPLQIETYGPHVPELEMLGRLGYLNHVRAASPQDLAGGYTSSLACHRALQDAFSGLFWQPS
T6 sequence (P06493 whole entry): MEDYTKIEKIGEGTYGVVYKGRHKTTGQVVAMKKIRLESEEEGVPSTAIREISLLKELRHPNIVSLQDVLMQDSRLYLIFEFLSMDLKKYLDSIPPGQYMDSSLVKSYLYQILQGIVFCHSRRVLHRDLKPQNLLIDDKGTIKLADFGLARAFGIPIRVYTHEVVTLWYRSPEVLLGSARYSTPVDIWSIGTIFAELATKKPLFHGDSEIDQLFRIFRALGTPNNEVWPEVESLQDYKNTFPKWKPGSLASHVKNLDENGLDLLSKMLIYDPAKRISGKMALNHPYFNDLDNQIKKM
T6 sequence (P14635 whole entry partner): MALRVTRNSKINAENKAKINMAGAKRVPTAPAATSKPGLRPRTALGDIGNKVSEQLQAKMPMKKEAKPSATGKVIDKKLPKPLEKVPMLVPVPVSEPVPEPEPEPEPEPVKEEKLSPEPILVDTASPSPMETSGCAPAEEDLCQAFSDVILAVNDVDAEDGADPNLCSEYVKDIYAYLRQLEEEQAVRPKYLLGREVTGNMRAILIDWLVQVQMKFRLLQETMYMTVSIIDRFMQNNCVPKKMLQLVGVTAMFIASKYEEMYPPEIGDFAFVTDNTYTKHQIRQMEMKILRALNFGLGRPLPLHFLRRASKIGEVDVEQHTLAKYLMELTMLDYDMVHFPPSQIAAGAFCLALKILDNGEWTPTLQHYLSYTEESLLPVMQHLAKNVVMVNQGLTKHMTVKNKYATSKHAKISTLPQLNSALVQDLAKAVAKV
T2 sequence (Q00534 whole entry): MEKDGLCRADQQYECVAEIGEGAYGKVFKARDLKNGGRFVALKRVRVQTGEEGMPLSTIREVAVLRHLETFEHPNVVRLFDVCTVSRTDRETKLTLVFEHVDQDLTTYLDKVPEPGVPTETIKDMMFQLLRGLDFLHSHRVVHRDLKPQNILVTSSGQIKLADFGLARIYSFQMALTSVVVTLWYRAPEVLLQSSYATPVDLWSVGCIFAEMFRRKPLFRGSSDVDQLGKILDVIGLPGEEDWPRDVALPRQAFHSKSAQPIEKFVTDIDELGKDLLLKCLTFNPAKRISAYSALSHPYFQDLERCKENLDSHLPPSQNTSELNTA
T2 sequence (P30281 whole entry partner): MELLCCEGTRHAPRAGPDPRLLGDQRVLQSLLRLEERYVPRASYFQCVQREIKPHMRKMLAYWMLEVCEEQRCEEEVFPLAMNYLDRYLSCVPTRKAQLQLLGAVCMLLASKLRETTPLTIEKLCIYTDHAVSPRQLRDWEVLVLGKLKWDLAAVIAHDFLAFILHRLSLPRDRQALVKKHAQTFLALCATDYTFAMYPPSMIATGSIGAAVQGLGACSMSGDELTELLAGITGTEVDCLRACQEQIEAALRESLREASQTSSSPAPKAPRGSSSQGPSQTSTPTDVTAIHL
T10 sequence (Q00535 whole entry): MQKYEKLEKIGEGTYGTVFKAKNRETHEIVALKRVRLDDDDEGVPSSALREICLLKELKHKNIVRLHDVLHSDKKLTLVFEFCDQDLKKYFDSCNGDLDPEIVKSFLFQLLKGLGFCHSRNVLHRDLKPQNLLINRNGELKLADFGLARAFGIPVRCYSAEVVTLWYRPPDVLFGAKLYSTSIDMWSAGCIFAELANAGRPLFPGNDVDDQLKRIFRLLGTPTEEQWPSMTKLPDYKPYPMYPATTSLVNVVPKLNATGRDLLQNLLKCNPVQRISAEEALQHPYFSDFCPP
T10 sequence (Q15078 2-307 partner limits assumed): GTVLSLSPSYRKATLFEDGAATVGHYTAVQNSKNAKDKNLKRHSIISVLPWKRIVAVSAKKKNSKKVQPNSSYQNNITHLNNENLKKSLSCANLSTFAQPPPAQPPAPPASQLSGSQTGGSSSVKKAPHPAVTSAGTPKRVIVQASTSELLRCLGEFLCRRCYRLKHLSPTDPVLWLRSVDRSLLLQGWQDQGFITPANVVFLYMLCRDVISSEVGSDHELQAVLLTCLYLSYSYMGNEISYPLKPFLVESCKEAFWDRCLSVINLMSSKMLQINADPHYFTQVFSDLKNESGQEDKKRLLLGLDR
T7 sequence (P50750 whole entry): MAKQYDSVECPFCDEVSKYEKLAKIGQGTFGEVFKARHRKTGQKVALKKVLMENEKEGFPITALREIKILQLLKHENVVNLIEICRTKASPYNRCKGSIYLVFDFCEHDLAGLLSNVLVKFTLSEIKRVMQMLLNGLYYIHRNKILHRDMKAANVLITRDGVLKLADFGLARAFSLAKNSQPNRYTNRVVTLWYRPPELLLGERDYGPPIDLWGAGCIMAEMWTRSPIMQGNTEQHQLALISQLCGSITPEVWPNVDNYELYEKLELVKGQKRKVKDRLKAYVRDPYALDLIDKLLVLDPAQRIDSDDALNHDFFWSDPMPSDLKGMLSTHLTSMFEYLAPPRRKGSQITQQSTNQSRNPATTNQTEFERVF
T7 sequence (O60563 whole entry partner): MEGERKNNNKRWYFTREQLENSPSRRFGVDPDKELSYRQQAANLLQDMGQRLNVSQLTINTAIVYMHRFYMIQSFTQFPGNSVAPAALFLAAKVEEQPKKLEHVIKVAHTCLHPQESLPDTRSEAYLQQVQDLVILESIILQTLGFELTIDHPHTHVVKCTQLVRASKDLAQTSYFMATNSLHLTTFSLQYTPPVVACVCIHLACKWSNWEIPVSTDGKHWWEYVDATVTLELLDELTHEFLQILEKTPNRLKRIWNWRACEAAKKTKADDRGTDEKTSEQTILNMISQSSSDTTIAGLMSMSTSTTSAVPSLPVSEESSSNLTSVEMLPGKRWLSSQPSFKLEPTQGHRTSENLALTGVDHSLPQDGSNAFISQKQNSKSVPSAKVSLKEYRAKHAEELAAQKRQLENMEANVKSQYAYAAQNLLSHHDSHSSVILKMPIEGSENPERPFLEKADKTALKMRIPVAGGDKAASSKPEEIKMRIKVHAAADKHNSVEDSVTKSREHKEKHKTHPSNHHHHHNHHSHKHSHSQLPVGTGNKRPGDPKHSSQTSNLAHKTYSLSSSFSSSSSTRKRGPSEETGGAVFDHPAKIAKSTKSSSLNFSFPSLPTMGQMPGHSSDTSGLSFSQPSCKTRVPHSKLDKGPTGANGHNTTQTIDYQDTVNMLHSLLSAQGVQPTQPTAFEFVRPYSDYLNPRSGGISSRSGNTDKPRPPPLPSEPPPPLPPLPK
T5 sequence (Q00535 whole entry): as the sequence (Q00535 whole entry) above
T5 sequence (Q15078 99-307 partner limits assumed): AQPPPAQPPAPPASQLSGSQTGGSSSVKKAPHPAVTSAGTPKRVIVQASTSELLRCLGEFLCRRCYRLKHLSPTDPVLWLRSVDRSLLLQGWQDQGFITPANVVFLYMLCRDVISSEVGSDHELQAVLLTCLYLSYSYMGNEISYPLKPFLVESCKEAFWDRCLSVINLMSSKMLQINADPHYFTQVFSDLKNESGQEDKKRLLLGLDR

Row | half-life at 1 µmol/L [1, 8] | half-life at 1 µmol/L [1, 9] | half-life at 1 µmol/L [1, 10] | half-life at 1 µmol/L [1, 11] | IC50 (CDK6/cyclin D3; [12]) | IC50 (CDK2/cyclin A2) | IC50 (CDK5/p25) | IC50 (CDK1/cyclin B1 [2]; [13]) | IC50 (CDK7) | IC50 (CDK2/cyclin E1) | IC50 (CDK5) | SMILES | also measured
1 | < 10 min | < 10 min | < 10 min | < 10 min | 8.6 nmol/L | 0.1 nmol/L | 0.4 nmol/L | 1.2 nmol/L | 33.5 nmol/L | 0.1 nmol/L | 0.5 nmol/L | NS(=O)(=O)c1ccc(Nc2ncc3cc4n(c3n2)C2(CCCCC2)CN=C4)cc1 [Compound B] | IC50 (CDK4/cyclin D1): 3.6 nmol/L; IC50 (CDK3/cyclin E1): 0.5 nmol/L; IC50 (CDK9/cyclin T1 [3]; ATP at Km, read-out: IC50 (nmol/L) CDK9/cyclin T1): 1.6 nmol/L
2 | 15.3 min | < 10 min | < 10 min | 23.4 min | 214 nmol/L | 4 nmol/L |  | 41 nmol/L | 796 nmol/L | 5 nmol/L | 50.2 nmol/L | C[C@@H]1NC(=O)C2(CCCCC2)n2c1cc1cnc(Nc3ccc(S(N)(=O)=O)cc3)nc12 [Compound C] | 
3 |  |  |  |  |  |  |  |  |  |  |  | CC(C)N1CCN(c2ccc(Nc3ncc4cc5n(c4n3)C3(CCCCC3)CNC5=O)nc2)CC1 [Lerociclib, lerociclib, reference compound] | IC50 [4]: 1420 nM
4 |  |  |  |  |  |  |  |  |  |  |  | COCc1cc(C(=O)Nc2cc([C@H]3CC[C@@H](OC(=O)NC(C)C)C3)[nH]n2)n(C)n1 [PF-07104091, reference compound] | IC50 (CDK1/cyclin B1 [5]): 1180 nM; IC50 (CDK9/cyclin T1 [6]): > 10000 nM; IC50 [7]: 125 nM; IC50 (MCF7 Fulv-resistant): 508 nM; IC50 (MCF7 Abema-resistant): 41.8 nM; IC50 (MCF7 Parent; Parent in DMSO): 562 nM; IC50 (MCF7 Parent; Parent+Abema: 500 nM abemaciclib concurrently): 232 nM; IC50 (CDK6/cyclin D3; Supp Fig S1C, read-out: IC50 (nM) CDK6/cyclin D3): > 1000 nmol/L; IC50 (CDK1/cyclin B1 [2]; Supp Fig S1C, read-out: IC50 (nM) CDK1/B1): 65.8 nmol/L; IC50 (CDK9/cyclin T1 [3]; Supp Fig S1C, read-out: IC50 (nM) CDK9/cyclin T1): 363 nmol/L
5 | > 60 min | 28 min | > 60 min | 5 min |  |  | 1710 nmol/L |  | 4640 nmol/L |  | 1240 nmol/L | CN1CCN(c2ccc(Nc3ncc4cc5n(c4n3)C3(CCCCC3)CNC5=O)nc2)CC1 [Trilaciclib, reference compound] | half-life at 1 µmol/L ([1]; both sexes, human, liver microsomes, longer than the duration of the experiment, read-out: calculated half-life (in parenthesis)): 66 min; half-life at 1 µmol/L ([1]; male, Sprague-Dawley, rat, liver microsomes, longer than the duration of the experiment, read-out: calculated half-life (in parenthesis)): 73 min
6 |  |  |  |  |  |  |  |  |  |  |  | CN(C)C(=O)c1cc2cnc(Nc3ccc(N4CCNCC4)cn3)nc2n1C1CCCC1 [ribociclib, reference compound] | tumor growth (ST4316B PDX): slowed tumor growth modestly

— article PMC10905675, “INX-315, a Selective CDK2 Inhibitor, Induces Cell Cycle Arrest and Senescence in Solid Tumors” (Cancer Discovery, 2023)
